Results as given in patent US20240173289A1, “USE OF OXYMETHYL-MODIFIED DERIVATIVE OF QUERCETIN IN PREPARATION OF DRUG FOR INHIBITING TUMOR CELL PROLIFERATION” (ZHEJIANG UNIVERSITY, priority 2021, published 2024).

Experiments:
Type in all cases: cell-based
mouse glioma BV2 [1] = experiment: scratch closure test; conditions: 4 mg/L, 24 h
Description: (§1) Cells with a certain density (6×10^5 cells per mL for AGS, T47D, Caco2, BCPAP, GES, HUVEC; 5×10^5 cells per mL for HepG2, MDA-MB-231, BGC-823, A549, PC3, L02; 3×10^5 cells per mL for 143B, HOS, U2, SGC-7901, Hela, BV-2; and 1.8×10^6 cells per mL for WI-38) were spread on a 6-well plate (1 mL per well), added with a DMEM medium containing 10% fetal calf serum, and cultured overnight to form a monolayer of cells. A horizontal scratch was scratched on the monolayer of cells with a pipette tip of 200 μL, washed with PBS 3 times, added into a DMEM medium containing 10% fetal bovine serum, and then added with corresponding dosages of a quercetin 3,3′-dimethyl ether solution (the dosage of osteosarcoma cells was 143B: 4 mg/L, HOS: 4 mg/L, U2: 10 mg/L; the dosage of breast cancer cells was MDA-MB-231: 2 mg/L, T47D: 3 mg/L; the dosage of gastric cancer cells was SGC7901: 6 mg/L, BGC823: 5 mg/L, AGS: 3 mg/L; the dosage of cervical cancer Hela cells was 2 mg/L; the dosage of lung cancer cell A549 was 3 mg/L; the dosage of intestinal cancer cells Caco2 was 4 mg/L; the dosage of mouse glioma BV2 was 4 mg/L; the dosage of human prostate cancer cells PC3 was 6 mg/L; and the dosage of human thyroid cancer cells BCPAP was 2 mg/L), while DMSO was used as a solvent control, and then incubated for 24 h. A scratch width and a measurement width were determined under a microscope, and a scratch closure ratio was calculated as follows: scratch closure ratio=(scratch width−measurement width)/scratch width×100%. Scratch inhibition ratio=(scratch closure ratio of control group−scratch closure ratio of treatment group)/scratch closure ratio of control group×100%.

[2] = system: cervical cancer Hela cells; experiment: scratch closure test; conditions: 2 mg/L, 24 h
Description: as §1

[3] = system: intestinal cancer cells Caco2; experiment: scratch closure test; conditions: 24 h
Description: as §1

osteosarcoma cells 143B = experiment: scratch closure test; conditions: Homo sapiens, 4 mg/L, 24 h, versus control group, read-out: inhibition rate of scratch closure
Description: as §1

[4] = system: gastric cancer cells SGC-7901; experiment: scratch closure test; conditions: 24 h
Description: as §1

gastric cancer cells AGS [5] = experiment: scratch closure test; conditions: 3 mg/L, 24 h
Description: as §1

[6] = system: human thyroid cancer cells BCPAP; experiment: scratch closure test; conditions: 2 mg/L, 24 h
Description: as §1

osteosarcoma cells HOS = experiment: scratch closure test; conditions: 4 mg/L, 24 h, versus control group, read-out: inhibition rate of scratch closure
Description: as §1

[7] = system: breast cancer cells MDA-MB-231; experiment: scratch closure test; conditions: 2 mg/L, 24 h
Description: as §1

[8] = system: human prostate cancer cells PC3; experiment: scratch closure test; conditions: 6 mg/L, 24 h
Description: as §1

lung cancer cell A549 = experiment: scratch closure test; conditions: Homo sapiens, 3 mg/L, 24 h, versus control group, read-out: inhibition rate of scratch closure
Description: as §1

breast cancer cells T47D = experiment: scratch closure test; conditions: 3 mg/L, 24 h
Description: as §1

[9] = system: gastric cancer cells BGC-823; experiment: scratch closure test; conditions: Homo sapiens, BGC823, 5 mg/L, 24 h, versus control group, read-out: inhibition rate of scratch closure
Description: as §1

osteosarcoma cells U2 = experiment: scratch closure test; conditions: 10 mg/L, 24 h
Description: as §1

mouse glioma BV2 [10] = experiment: apoptosis, AnnexinV-FITC/PI flow cytometry; conditions: BV-2; 4 mg/L; 24 h
Excerpt: (§2) The tumor cells growing in the logarithmic phase were digested with trypsin, collected by centrifugation to prepare a suspension, the cells were counted and adjusted to a certain concentration (6×10^5 cells per mL for AGS, T47D, Caco2, BCPAP, GES, HUVEC; 5×10^5 cells per mL for HepG2, MDA-MB-231, BGC-823, A549, PC3, L02; 3×10^5 cells per mL for 143B, HOS, U2, SGC-7901, Hela, BV-2; 1.8×10^6 cells per mL for WI-38), and the cells at a certain concentration were transferred to a 6-well plate at a concentration of 1 mL per well. The cells were cultured in a cell culture incubator for 12 h to allow the cells to adhere to the wall. The corresponding dosages of a quercetin 3,3′-dimethyl ether solution were added (the dosage of osteosarcoma cells was 143B: 4 mg/L, HOS: 4 mg/L, U2: 10 mg/L; the dosage of breast cancer cells was MDA-MB-231: 2 mg/L, T47D: 3 mg/L; the dosage of gastric cancer cells was SGC7901: 6 mg/L, BGC823: 5 mg/L, AGS: 3 mg/L; the dosage of cervical cancer Hela cells was 2 mg/L; the dosage of lung cancer cell A549 was 3 mg/L; the dosage of intestinal cancer cells Caco2 was 4 mg/L; the dosage of mouse glioma BV2 was 4 mg/L; the dosage of human prostate cancer cells PC3 was 6 mg/L; and the dosage of human thyroid cancer cells BCPAP was 2 mg/L). While DMSO was used as a solvent control, and then incubated for 24 h. After acting for 24 h, the cells were collected by centrifugation at 300 g, 4° C. for 5 min, a supernatant was discarded, and the cells were washed twice with pre-cooled PBS, each time with centrifugation at 300 g, 4° C. for 5 min. (1˜5)×10^5 cells were collected and resuspended in […] 1× BindingBuffer. 5 μl of AnnexinV-FITC and 5 μl of PI were added, and mixed well gently. The cells were reacted at room temperature for 10 min in the dark. 400 μl of 1× Binding Buffer was added, mixed well, and the samples were detected by flow cytometry within 1 h. The analysis was conducted according to a standard detection procedure of flow cytometry, at an excitation wavelength of 488 nm, and 20,000 cells were counted, and obtained results were analyzed with cell cycle fitting software ModFit.

gastric cancer cells AGS [11] = experiment: apoptosis, AnnexinV-FITC/PI flow cytometry; conditions: 3 mg/L, 24 h
Excerpt: as §2

[12] = Homo sapiens, versus control group, read-out: inhibition rate of scratch closure
[13] = versus control group, read-out: inhibition rate of scratch closure

With `COc1cc(-c2oc3cc(O)cc(O)c3c(=O)c2OC)ccc1O` [Quercetin 3,3′-dimethyl ether, quercetin 3,3′-dimethyl ether] the “Treatment scratch closed %” value (mouse glioma BV2 [1]; BV-2) was 21.17 ± 8.55 %, the inhibition at 4 µg/mL (mouse glioma BV2 [1]; Mus musculus, BV2, versus control group, read-out: inhibition rate of scratch closure) was 75.2% and the “Treatment scratch closed %” value [2] was 37.42 ± 1.62 %. For the same molecule, the inhibition at 2 µg/mL [2, 12] was 54%, the “Treatment scratch closed %” value ([3]; 4 mg/L) was 28.37 ± 10.21 % and the inhibition at 4 µg/mL ([3]; Homo sapiens, Caco-2, 4 mg/L, versus control group, read-out: inhibition rate of scratch closure) was 66.6%. For the same molecule, the inhibition at 4 µg/mL (osteosarcoma cells 143B) was 54.3%, the “Treatment scratch closed %” value ([4]; 6 mg/L) was 25.05 ± 10.1 % and the inhibition at 6 µg/mL ([4]; Homo sapiens, SGC7901, 6 mg/L, versus control group, read-out: inhibition rate of scratch closure) was 72%. The “Treatment scratch closed %” value (gastric cancer cells AGS [5]) was 31.67 ± 3.39 %, the inhibition at 3 µg/mL (gastric cancer cells AGS [5]; [13]) was 60.9% and the “Treatment scratch closed %” value [6] was 30.31 ± 5.21 %. The inhibition at 2 µg/mL [6, 12] was 64.7%, the inhibition at 4 µg/mL (osteosarcoma cells HOS) was 57.6% and the “Treatment scratch closed %” value [7] was 16.72 ± 3.87 %. For the same molecule, the inhibition at 2 µg/mL [7, 12] was 82%, the “Treatment scratch closed %” value [8] was 24.76 ± 5.55 % and the inhibition at 6 µg/mL [8, 12] was 70.9%. The inhibition at 3 µg/mL (lung cancer cell A549) was 69.6%, the “Treatment scratch closed %” value (breast cancer cells T47D) was 31.83 ± 6.01 % and the inhibition at 3 µg/mL (breast cancer cells T47D; [12]) was 64.1%. The inhibition at 5 µg/mL [9] was 73.7%, the “Treatment scratch closed %” value (osteosarcoma cells U2) was 27.67 ± 6.81 % and the inhibition at 10 µg/mL (osteosarcoma cells U2; [13]) was 70.5%. For the same molecule, the “Treatment apoptosis ratio %” value (mouse glioma BV2 [10]) was 18.65 ± 0.39 % and the “Treatment apoptosis ratio %” value (gastric cancer cells AGS [11]) was 29.47 ± 2.25 %.
